Data as given in the supplement of paper PMC10307832.

Assays:
Experiment in all cases: relative viability (nuclei count vs DMSO), 5 days (fraction); higher = more cells survive
PC-14 = system: PC-14
Summary of the method: (§1)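 Nuclei were stained with Hoechst during a one-step fixation (final 0.05% Triton X-100, 1% formaldehyde, 1 ug/ml Hoechst) carried out 5 days after dosing, then counted on 4× images. The cells, lung cancer lines in 1536-well plates, had been dosed by pin tool the day after seeding with one drug alone or a fixed anchor-drug dose plus five library-drug doses (not always all listed) in √10 steps. Relative viability is the nuclei count in treated wells divided by that in vehicle wells, and each value is the median of duplicate plates.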

NCI-H2405 = system: NCI-H2405
Summary of the method: as §1

NCI-H322M = system: NCI-H322M
Summary of the method: as §1

NCI-H596 = system: NCI-H596
Summary of the method: as §1

NCI-H520 = system: NCI-H520
Summary of the method: as §1

EPLC-272H = system: EPLC-272H
Summary of the method: as §1

NCI-H3122 = system: NCI-H3122
Summary of the method: as §1

ABC-1 = system: ABC-1
Summary of the method: as §1

HCC-827 = system: HCC-827
Summary of the method: as §1

NCI-H358 = system: NCI-H358
Summary of the method: as §1

NCI-H1792 = system: NCI-H1792
Summary of the method: as §1

NCI-H647 = system: NCI-H647
Summary of the method: as §1

HOP-62 = system: HOP-62
Summary of the method: as §1

NCI-H1355 = system: NCI-H1355
Summary of the method: as §1

NCI-H1666 = system: NCI-H1666
Summary of the method: as §1

LU99A = system: LU99A
Summary of the method: as §1

NCI-H838 = system: NCI-H838
Summary of the method: as §1

UMC-11 = system: UMC-11
Summary of the method: as §1

NCI-H23 = system: NCI-H23
Summary of the method: as §1

NCI-H2170 = system: NCI-H2170
Summary of the method: as §1

NCI-H727 = system: NCI-H727
Summary of the method: as §1

NCI-H1975 = system: NCI-H1975
Summary of the method: as §1

BEN = system: BEN
Summary of the method: as §1

With `Cc1cnc(-c2cnc(NCCNc3ccc(C#N)cn3)nc2-c2ccc(Cl)cc2Cl)[nH]1` + Nc1ncn([C@H]2C[C@H](O)[C@@H](CO)O2)c(=O)n1 [Decitabine] (partner 2 µM) the relative viability (PC-14; first compound 0.08 µM) was 0.232, the relative viability (PC-14; first compound 0.253 µM) was 0.171 and the relative viability (PC-14; first compound 0.8 µM) was 0.217. For the same compound, the relative viability (PC-14; first compound 2.53 µM) was 0.234, the relative viability (NCI-H2405; first compound 0.08 µM) was 0.799 and the relative viability (NCI-H2405; first compound 0.253 µM) was 0.734. For the same compound, the relative viability (NCI-H2405; first compound 0.8 µM) was 0.758, the relative viability (NCI-H2405; first compound 2.53 µM) was 0.645 and the relative viability (NCI-H322M; first compound 0.08 µM) was 0.654. It also gave a relative viability (NCI-H322M; first compound 0.253 µM) of 0.655, a relative viability (NCI-H322M; first compound 0.8 µM) of 0.567 and a relative viability (NCI-H322M; first compound 2.53 µM) of 0.726. The relative viability (NCI-H596; first compound 0.08 µM) was 1.08, the relative viability (NCI-H596; first compound 0.253 µM) was 0.995 and the relative viability (NCI-H596; first compound 0.8 µM) was 1.03. It also gave a relative viability (NCI-H596; first compound 2.53 µM) of 1.07, a relative viability (NCI-H520; first compound 0.08 µM) of 0.531 and a relative viability (NCI-H520; first compound 0.253 µM) of 0.504. The relative viability (NCI-H520; first compound 0.8 µM) was 0.563, the relative viability (NCI-H520; first compound 2.53 µM) was 0.546 and the relative viability (EPLC-272H; first compound 0.08 µM) was 0.436. The relative viability (EPLC-272H; first compound 0.253 µM) was 0.353, the relative viability (EPLC-272H; first compound 0.8 µM) was 0.352 and the relative viability (EPLC-272H; first compound 2.53 µM) was 0.467. For the same compound, the relative viability (NCI-H3122; first compound 0.08 µM) was 0.461, the relative viability (NCI-H3122; first compound 0.8 µM) was 0.461 and the relative viability (NCI-H3122; first compound 2.53 µM) was 0.386. The relative viability (ABC-1; first compound 0.08 µM) was 1.27, the relative viability (ABC-1; first compound 0.253 µM) was 0.871 and the relative viability (ABC-1; first compound 0.8 µM) was 1.08. The relative viability (ABC-1; first compound 2.53 µM) was 0.918, the relative viability (HCC-827; first compound 0.08 µM) was 0.328 and the relative viability (HCC-827; first compound 0.253 µM) was 0.299. It also gave a relative viability (HCC-827; first compound 0.8 µM) of 0.326, a relative viability (HCC-827; first compound 2.53 µM) of 0.287 and a relative viability (NCI-H358; first compound 0.08 µM) of 0.234. The relative viability (NCI-H358; first compound 0.253 µM) was 0.208, the relative viability (NCI-H358; first compound 0.8 µM) was 0.248 and the relative viability (NCI-H358; first compound 2.53 µM) was 0.213. For the same compound, the relative viability (NCI-H1792; first compound 0.08 µM) was 0.564, the relative viability (NCI-H1792; first compound 0.253 µM) was 0.476 and the relative viability (NCI-H1792; first compound 0.8 µM) was 0.542. The relative viability (NCI-H1792; first compound 2.53 µM) was 0.469, the relative viability (NCI-H647; first compound 0.08 µM) was 0.381 and the relative viability (NCI-H647; first compound 0.253 µM) was 0.36. It also gave a relative viability (NCI-H647; first compound 0.8 µM) of 0.349, a relative viability (NCI-H647; first compound 2.53 µM) of 0.297 and a relative viability (HOP-62; first compound 0.08 µM) of 0.204. It also gave a relative viability (HOP-62; first compound 0.253 µM) of 0.226, a relative viability (HOP-62; first compound 0.8 µM) of 0.236 and a relative viability (HOP-62; first compound 2.53 µM) of 0.174. It also gave a relative viability (NCI-H1355; first compound 0.08 µM) of 0.354, a relative viability (NCI-H1355; first compound 0.253 µM) of 0.316 and a relative viability (NCI-H1355; first compound 0.8 µM) of 0.36. The relative viability (NCI-H1355; first compound 2.53 µM) was 0.371, the relative viability (NCI-H1666; first compound 0.08 µM) was 0.759 and the relative viability (NCI-H1666; first compound 0.253 µM) was 0.713. The relative viability (NCI-H1666; first compound 0.8 µM) was 0.618, the relative viability (NCI-H1666; first compound 2.53 µM) was 0.844 and the relative viability (LU99A; first compound 0.08 µM) was 0.954. It also gave a relative viability (LU99A; first compound 0.253 µM) of 0.873, a relative viability (LU99A; first compound 0.8 µM) of 0.938 and a relative viability (LU99A; first compound 2.53 µM) of 0.775. For the same compound, the relative viability (NCI-H838; first compound 0.08 µM) was 0.503, the relative viability (NCI-H838; first compound 0.253 µM) was 0.506 and the relative viability (NCI-H838; first compound 0.8 µM) was 0.47. It also gave a relative viability (NCI-H838; first compound 2.53 µM) of 0.46, a relative viability (UMC-11; first compound 0.08 µM) of 0.727 and a relative viability (UMC-11; first compound 0.253 µM) of 0.533. For the same compound, the relative viability (UMC-11; first compound 0.8 µM) was 0.314, the relative viability (UMC-11; first compound 2.53 µM) was 0.668 and the relative viability (NCI-H23; first compound 0.08 µM) was 0.382. For the same compound, the relative viability (NCI-H23; first compound 0.253 µM) was 0.293, the relative viability (NCI-H23; first compound 0.8 µM) was 0.323 and the relative viability (NCI-H23; first compound 2.53 µM) was 0.387. It also gave a relative viability (NCI-H2170; first compound 0.08 µM) of 0.481, a relative viability (NCI-H2170; first compound 0.8 µM) of 0.484 and a relative viability (NCI-H2170; first compound 2.53 µM) of 0.406. It also gave a relative viability (NCI-H727; first compound 0.08 µM) of 0.867, a relative viability (NCI-H727; first compound 0.253 µM) of 0.937 and a relative viability (NCI-H727; first compound 0.8 µM) of 0.838. The relative viability (NCI-H727; first compound 2.53 µM) was 0.766, the relative viability (NCI-H1975; first compound 0.08 µM) was 0.349 and the relative viability (NCI-H1975; first compound 0.253 µM) was 0.361. It also gave a relative viability (NCI-H1975; first compound 0.8 µM) of 0.409, a relative viability (NCI-H1975; first compound 2.53 µM) of 0.314 and a relative viability (BEN; first compound 0.08 µM) of 0.768. For the same compound, the relative viability (BEN; first compound 0.253 µM) was 0.716, the relative viability (BEN; first compound 0.8 µM) was 0.663 and the relative viability (BEN; first compound 2.53 µM) was 0.8.
